Data reported in US20060104907A1, “Biologically potent analogues of the Dmt-Tic pharmacophore and methods of use” (Government of the U.S.A., represented by the Secretary, …, priority 2004, published 2006).
Counter-ions that a name gives are not always drawn. Like-named read-outs stand apart in the source and are kept apart here.

How the values were obtained:
mouse δ-opioid receptors = molecular target: T1, mouse δ-opioid receptors (Mus musculus, UniProt P32300); assay: Confocal microscopic visualization of fluorescent probe binding in NG108-15 cells; assay type: cell-based; conditions: for blockage of fluorescence of probe 3 bound to δ-opioid receptors: NG108-15 cells preincubated with antagonist (naltrindole 0.2 μM, 5 min) before adding the probe
T1 construct: NG108-15 (mouse N18 neuroblastoma x rat C6 glioma) cell line, which expresses mouse δ-opioid receptors; endogenous in cells; host or cells: NG108-15 (mouse N18 neuroblastoma x rat C6 glioma)
Procedure: Visualization of δ-opioid receptor sites with the inventive fluorescent probe was obtained by incubating (15 min at 35° C.) the fluorescent tripeptide 3 (0.2 μM) with the NG108-15 (mouse N18 neuroblastoma x rat C6 glioma) cell line, which expresses mouse δ-opioid receptors. […] Localization and visualization of opioid receptor binding sites were obtained by incubating the fluorescent probe with the NG108-15 cells as shown in the left half of the fluorescent photomicrograph obtained from the confocal scanning laser microscope (FIG. 3).

μ-opioid receptors [1] = molecular target: T2, μ-opioid receptors (Rattus norvegicus, UniProt P33535); assay: Competitive receptor binding assay, rat brain synaptosomes (P2 fraction), [3H]DAMGO
T2 construct: using rat brain synaptosomes (P2 fraction); from tissue; host or cells: rat brain synaptosomes (P2 fraction)

δ-opioid receptors [2] = molecular target: T3, δ-opioid receptors (Mus musculus, UniProt P32300); assay: Functional bioactivity in mouse vas deferens (MVD), electrically-evoked twitch; assay type: cell-based
T3 construct: preparations of mouse vas deferens (MVD, containing δ-opioid receptors); from tissue; host or cells: mouse vas deferens
Procedure: (§1) Preparations of myenteric plexus-longitudinal muscle obtained from male guinea-pig ileum (GPI, enriched in μ-opioid receptors) and preparations of mouse vas deferens (MVD, containing δ-opioid receptors) were used for field stimulation with bipolar rectangular pulses of supramaximal voltage (Melchiorri et al., Eur. J. Pharm., 195: 201-207 (1991)). Agonists were evaluated for their ability to inhibit the electrically-evoked twitch. The biological potency of the compounds was compared with that of the μ-opioid receptor agonist dermorphin in GPI and with that of the δ-opioid receptor agonist deltorphin C in MVD. The results are expressed as the IC50 values obtained from dose-response curves (Prism™, GraphPad). To evaluate antagonistic properties, compounds 2 and 3 were added to the bath and allowed to interact with tissue receptor sites 5 min before adding deltorphin C. The IC50 values (nM) represent the mean of not less than six fresh tissue samples±SE. […] IC50 and pA2 values (nM) are mean ±SE of at least six experiments conducted with fresh tissues.

μ-opioid receptors [3] = assay: Functional bioactivity in guinea-pig ileum (GPI), electrically-evoked twitch; assay type: cell-based; conditions: agonist activity, inhibition of electrically-evoked twitch
Procedure: as §1

δ-opioid receptors [4] = molecular target: T4, δ-opioid receptors (Rattus norvegicus, UniProt P33533); assay: Competitive receptor binding assay, rat brain synaptosomes (P2 fraction), [3H]DPDPE; conditions: for fold decrease of δ-opioid receptor selectivity: compared to reference 1; for μ/δ (δ-opioid receptor selectivity): ratio Ki μ / Ki δ
T4 construct: using rat brain synaptosomes (P2 fraction); from tissue; host or cells: rat brain synaptosomes (P2 fraction)

δ-opioid receptor [5] = molecular target: T5, δ-opioid receptor (Homo sapiens, UniProt P41143); conditions: cited from earlier work
δ-opioid receptor [6] = molecular target: T5, δ-opioid receptor; conditions: δ-opioid antagonist activity, literature; cited from earlier work
μ-opioid receptors [7] = molecular target: T2, μ-opioid receptors; conditions: rat brain synaptosomes; data taken from Balboni et al., J. Med Chem. 2004; read-out: Receptor affinity Ki^u; cited from earlier work
δ-opioid receptors [8] = molecular target: T3, δ-opioid receptors; conditions: cited from earlier work
δ-opioid receptors [9] = molecular target: T4, δ-opioid receptors; conditions: rat brain synaptosomes; data taken from Balboni et al., J. Med Chem. 2004; read-out: Receptor affinity Ki^δ; cited from earlier work
[10] = Fluorescence emission spectra and quantum yield; assay type: physicochemical; conditions: Tris/HCl buffer pH 6.6, excitation 350 nm
Procedure: Fluorescence emission spectra were recorded on a Jobin Yvon-Spex FluoroMax-2 spectrofluorometer with 1 nm spectral resolution for excitation and emission. A peptide solution at a concentration of 2×10^−5M in Tris-HCl buffer, pH 6.6, was used. The excitation wavelength was 350 nm. Fluorescence quantum yield (φ) was determined relative to quinine sulfate (Fluka) in 1 N H2SO4 (φ=0.546) as a reference (Meech et al., Journal of Photochemistry, 23: 193 (1983)). The quantum yield was calculated according to the following equation: [formula] where the subscripts S and R refer to the sample ns and reference compound, respectively; E is the integrated area under the corrected emission spectrum; A is the absorbance of the solution at the excitation wavelength. Absorbance values were kept below 0.02 to minimise inner filter and self-quenching effects. Since both the sample and the reference were in aqueous solution, the correction for the refractive index (nS/nR)^2 was considered to be of no significant relevance.

T2 sequence (P33535 whole entry): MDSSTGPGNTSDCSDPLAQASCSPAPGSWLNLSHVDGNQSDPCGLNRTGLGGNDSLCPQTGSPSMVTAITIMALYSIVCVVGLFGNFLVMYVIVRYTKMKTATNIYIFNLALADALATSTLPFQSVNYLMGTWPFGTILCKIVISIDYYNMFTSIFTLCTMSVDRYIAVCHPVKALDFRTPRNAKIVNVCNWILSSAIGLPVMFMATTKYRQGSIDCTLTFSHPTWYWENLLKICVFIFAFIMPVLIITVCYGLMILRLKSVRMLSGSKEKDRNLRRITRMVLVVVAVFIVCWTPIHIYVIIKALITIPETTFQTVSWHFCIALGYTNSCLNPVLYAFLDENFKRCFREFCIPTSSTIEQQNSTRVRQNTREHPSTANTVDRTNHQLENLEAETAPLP
T3 sequence (P32300 whole entry): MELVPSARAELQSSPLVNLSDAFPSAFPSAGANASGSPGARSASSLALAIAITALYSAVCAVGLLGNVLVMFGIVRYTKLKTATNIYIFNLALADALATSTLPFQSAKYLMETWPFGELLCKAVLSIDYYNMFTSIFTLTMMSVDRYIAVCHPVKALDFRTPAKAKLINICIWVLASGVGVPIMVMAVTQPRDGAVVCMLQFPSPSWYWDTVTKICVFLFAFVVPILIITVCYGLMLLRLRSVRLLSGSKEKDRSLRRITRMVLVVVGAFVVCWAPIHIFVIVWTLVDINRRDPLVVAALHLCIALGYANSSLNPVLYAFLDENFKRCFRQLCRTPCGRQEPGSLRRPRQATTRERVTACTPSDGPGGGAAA
T1 sequence (P32300 whole entry): as above
T5 sequence (P41143 whole entry): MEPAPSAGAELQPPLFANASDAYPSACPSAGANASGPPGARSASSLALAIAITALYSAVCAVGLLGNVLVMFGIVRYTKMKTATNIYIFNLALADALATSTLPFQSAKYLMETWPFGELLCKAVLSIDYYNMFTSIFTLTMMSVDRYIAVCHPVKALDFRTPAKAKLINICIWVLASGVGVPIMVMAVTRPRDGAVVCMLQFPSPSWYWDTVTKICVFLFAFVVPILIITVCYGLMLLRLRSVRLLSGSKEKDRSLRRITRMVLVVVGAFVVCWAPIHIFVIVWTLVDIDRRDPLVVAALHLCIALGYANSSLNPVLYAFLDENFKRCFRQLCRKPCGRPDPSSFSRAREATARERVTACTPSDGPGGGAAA
T4 sequence (P33533 whole entry): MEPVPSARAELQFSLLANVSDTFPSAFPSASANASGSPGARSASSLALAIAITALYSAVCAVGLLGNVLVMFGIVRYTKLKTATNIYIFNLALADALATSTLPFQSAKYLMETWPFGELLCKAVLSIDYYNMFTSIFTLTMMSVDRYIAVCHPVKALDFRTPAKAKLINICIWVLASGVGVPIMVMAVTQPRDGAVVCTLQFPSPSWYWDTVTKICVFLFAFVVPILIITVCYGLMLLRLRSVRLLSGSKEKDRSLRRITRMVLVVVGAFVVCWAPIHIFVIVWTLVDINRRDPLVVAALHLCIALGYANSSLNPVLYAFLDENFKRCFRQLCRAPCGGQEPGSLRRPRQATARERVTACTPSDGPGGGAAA

For Oc1ccc2c3c1O[C@H]1c4[nH]c5ccccc5c4C[C@@]4(O)[C@@H](C2)N(CC2CC2)CC[C@]314 [naltrindole], which “blockage of fluorescence of probe 3 bound to δ-opioid receptors” value (mouse δ-opioid receptors) is on record?
Its value is “essentially eliminated the fluorescence”.

What about the “blockage of fluorescence of probe 3 bound to δ-opioid receptors” value (mouse δ-opioid receptors; listed as NTI) of the same compound?
The value was “considerable blockage of the fluorescence”.

With Cc1cc(O)cc(C)c1C[C@H](N)C(=O)N1Cc2ccccc2C[C@H]1C(=O)N[C@@H](CCC(=O)O)C(=O)NCCCCCN [Compound 2, H-Dmt-Tic-Glu-NH-(CH2)5—NH2] as the compound, how does the Ki (μ-opioid receptors [1]) read?
The Ki was 380 ± 65 nM.

And the “fold increase of μ-opioid receptor affinity” value (μ-opioid receptors [1]; compared to the reference tripeptide (1))?
Its value is 3.6 fold.

And the melting point?
The melting point was 163 to 165 °C.

And the Kb (δ-opioid receptors [2])?
Its Kb is 1.58 nM.

What about the MVD activity type (δ-opioid receptors [2]; against [D-Ala2]deltorphin I dose-response curves) of the same compound?
Its MVD activity type is “competitive antagonist”.

And the “MVD pA2” value (δ-opioid receptors [2]; antagonism of deltorphin C, Schild plot)?
Its value is 8.8.

And the IC50 (μ-opioid receptors [3])?
Its IC50 is greater than 1000 nM.

And the Ki (δ-opioid receptors [4])?
The Ki was 0.22 ± 0.04 nM.

What about the “fold decrease of δ-opioid receptor selectivity” value (δ-opioid receptors [4]) of the same compound?
The value was 13 fold.

What about the “fold decrease in affinity for δ-opioid receptors” value (δ-opioid receptors [4]; compared to reference H-Dmt-Tic-Glu-NH2 (1)) of the same compound?
The value was 3.7 fold.

What about the “μ/δ (δ-opioid receptor selectivity)” value (δ-opioid receptors [4]) of the same compound?
Its value is 1700.

With “2′,6′-dimethyl-L-tyrosine-1,2,3,4-tetrahydroisoquinoline-3-carboxylic acid [Dmt-Tic]” as the compound, how does the “Ki^μ/Ki^δ” value (δ-opioid receptor [5]; literature (Salvadori et al. 1995 and others)) read?
Its value is 150,780.

What about the pA2 (δ-opioid receptor [6]) of the same compound?
Its pA2 is 8.2.

Which Ki (μ-opioid receptors [7]) does the source give for H-Dmt-Tic-Glu-NH2 [Compound 1] here?
The Ki was 1360 ± 268 nM.

What about the IC50 (μ-opioid receptors [3]) of the same compound?
The IC50 was greater than 1000 nM.

What about the MVD activity type (δ-opioid receptors [8]; Balboni et al., J. Med. Chem. 2004) of the same compound?
The MVD activity type was “partial δ-opioid agonist”.

What about the IC50 (δ-opioid receptors [8]; agonist activity, inhibition of electrically-evoked twitch, data taken from Balboni et al. 2004, read-out: MVD (IC50)) of the same compound?
Its IC50 is 2.58 ± 0.8 nM.

What about the Ki (δ-opioid receptors [9]) of the same compound?
The Ki was 0.06 ± 0.008 nM.

Which fluorescence emission maximum [10] does the source give for Ac-Glu-NH(CH2)5—NH—(C═S)—NH-fluorescein here?
The fluorescence emission maximum was 515 nm.

With Cc1cc(O)cc(C)c1C[C@H](N)C(=O)N1Cc2ccccc2C[C@H]1C(=O)N[C@@H](CCC(=O)O)C(=O)NCCCCCNC(=S)Nc1ccc(-c2c3ccc(=O)cc-3oc3cc(O)ccc23)c(C(=O)O)c1 (as salt: TFA) [Compound 3, 5-(3-{5-[2-({2-[2-amino-3-(4-hydroxy-2,6-dimethyl-phenyl)-propionyl]-1,2,3,4-tetrahydro-isoquinoline-3-carbonyl}-amino)-4-carboxy-butyrylamino]-pentyl}-thioureido)-2-(6-hydroxy-3-oxo-3H-xanten-9-yl)-benzoic acid] as the compound, how does the melting point read?
Its melting point is 169 to 171 °C.

For H-Tyr-Tic-Phe-(Phe)-OH [TIPP], which δ-selectivity (δ-opioid receptor [5]; Arttamangkul et al., Mol. Pharmacol. 2000) is on record?
The δ-selectivity was > 20,000.

Which results are given for Cc1cc(O)cc(C)c1C[C@H](N)C(=O)N1Cc2ccccc2C[C@H]1C(=O)N[C@@H](CCC(=O)O)C(=O)NCCCCCNC(=S)Nc1ccc(-c2c3ccc(=O)cc-3oc3cc(O)ccc23)c(C(=O)O)c1 [Compound 3, 5-(3-{5-[2-({2-[2-amino-3-(4-hydroxy-2,6-dimethyl-phenyl)-propionyl]-1,2,3,4-tetrahydro-isoquinoline-3-carbonyl}-amino)-4-carboxy-butyrylamino]-pentyl}-thioureido)-2-(6-hydroxy-3-oxo-3H-xanten-9-yl)-benzoic acid]?
Ki (μ-opioid receptors [1]): 152 ± 44 nM; residual fluorescence after antagonist preincubation (mouse δ-opioid receptors; NG108-15 cells, competition with δ-opioid receptor antagonists): ca. 10%; Ki (δ-opioid receptors [4]): 0.035 ± 0.01 nM; fold more δ-selective than fluorescent naltrindole derivative (δ-opioid receptors [4]; comparator from Korlipara et al. 1997): 857 fold; fold more δ-selective than fluorescent naltrindole derivative (δ-opioid receptors [4]; comparator from Kshirsagar et al. 1998): 115 fold; fold decrease of δ-opioid receptor selectivity (δ-opioid receptors [4]): 5 fold; δ-opioid receptor binding affinity (in words) (δ-opioid receptors [4]; rat brain synaptosomes): subnanomolar; μ/δ (δ-opioid receptor selectivity) (δ-opioid receptors [4]): 4,370
